Results from PubChem BioAssay AID624265 (Broad Institute, 2012).
Active and inactive are the calls of the source.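 How the source made its calls: active means at a dose no more than twice the top valid tested dose, the fitted curve drops below -35% activity change; inactive means the rest, rising-direction activity included.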

Test: cytotoxicity in NIH3T3 fibroblasts, dose response, cytotoxicity control for HSP40 inhibitor project, cell-based, CellTiter-Glo luminescence, cherry-pick, set 2 (AID 624265);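 further: cells exposed to compound for 48 hours before the ATP read; 0% = median neutral control signal and -100% = no luminescence left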
Conditions: NIH3T3 viability, CellTiter-Glo ATP luminescence

Row | SMILES | activity change, negative = toxicity (at 50 µM (top of the series)) | activity change, negative = toxicity (at 16 µM (top of the series))
1 | O=Cc1cc(N=Nc2ccccc2Cl)ccc1O | -3.57% (inactive) | 
2 | O=C(O)c1ccccc1NC(c1ccccc1)c1ccc2cccnc2c1O (stereo not drawn) | -15.4% (inactive) | 
3 | CC(C)NC(=O)NC(=O)COC(=O)c1ccc([N+](=O)[O-])cc1Cl | -6.58% (inactive) | 
4 | CCCn1c(=O)c(C(=O)NCc2ccc(OC)c(OC)c2)c(O)c2ccccc21 | 30.8% (inactive) | 
5 | O=C(NOC(=O)c1ccccc1)c1ccccc1 | -12.1% (inactive) | 
6 | O=C(c1ccc(-c2ccccc2)cc1)C1CCCN(C(=O)c2cncs2)C1 (stereo not drawn) | -8.68% (inactive) | 
7 | CCCS(=O)(=O)c1c(S(=O)(=O)CCC)c2c(C)cccn2c1C(=O)N/N=C/c1cc(O)cc(O)c1 | -15.8% (inactive) | 
8 | O=S1OC(c2ccccc2)c2cc(Cl)ccc21 (stereo not drawn) | 8.75% (inactive) | 
9 | Cn1nc(C(F)(F)F)c(C#N)c1N1CCN(c2ccc(F)cc2)CC1 | 21.3% (inactive) | 
10 | CCc1ccc(CN(C)C(=O)c2cc(COc3cccc(C(F)(F)F)c3)on2)nc1 | 5.53% (inactive) | 
11 | Oc1c(Br)cc(-c2ccccc2)cc1Br | 10.3% (inactive) | 
12 | COc1cc([N+](=O)[O-])cc(/C=N/NC(=O)c2cncc(Br)c2)c1O | -13.4% (inactive) | 
13 | CC(C)C(=O)NC(c1ccco1)c1ccc2cccnc2c1O (stereo not drawn) |  | -30% (inactive)
14 | O=C(CSc1ccc(-c2ccccn2)nn1)c1ccccc1 | -10.1% (inactive) | 
15 | O=C(Nc1cc(Oc2ccc(Cl)cc2)cc([N+](=O)[O-])c1)c1ccco1 | -2.9% (inactive) | 
16 | c1ccc(Cn2cc(-c3cccnc3)cn2)cc1 | -0.362% (inactive) | 
17 | O=C(c1ccccc1)c1ccc(Cn2cc(-c3ccccc3)nn2)cc1 | 5.39% (inactive) | 
18 | O=c1c(CO)cc(CO)cc(CO)c1O | -3.78% (inactive) | 
19 | CCCCn1c(=O)c(C(=O)NCc2ccncc2)c(O)c2ccccc21 | 25% (inactive) | 
20 | COc1cnc(-c2ccccn2)nc1Oc1ccc(C(C)(C)C)cc1 | 23.5% (inactive) | 
21 | COC(=O)C1=NN(C(=O)c2cccc(Br)c2)C(O)(c2ccc(Cl)cc2)C1 (stereo not drawn) | -0.434% (inactive) | 
22 | CCn1c(CNc2ccc(Cl)cc2)nnc1SCc1ccccc1 | -7.39% (inactive) | 
23 | CCCSC(=S)c1c(C)[nH]n(-c2ccccc2)c1=O | -14.1% (inactive) | 
24 | Cc1ccccc1C(=O)NNC(=S)NC(=O)c1ccc(Cl)cc1Cl | -5.68% (inactive) | 

Row | SMILES | activity change, negative = toxicity (at 50 µM (top of the series)) | activity change, negative = toxicity (at 16 µM (top of the series))
25 | CCCCCCn1c(=O)c(C(=O)Nc2ncccc2C)c(O)c2ccccc21 | 6.84% (inactive) | 
26 | COc1ccc(N(C(=O)c2ccncc2)S(=O)(=O)c2ccccc2)cc1 | -6.26% (inactive) | 
27 | CC1(C)CC(=O)C(N=Nc2ccc3ncsc3c2)=C(O)C1 | 3.01% (inactive) | 
28 | CC1=NN(C(N)=S)C(=O)C1N=Nc1cccc(Cl)c1C (stereo not drawn) | -14.8% (inactive) | 
29 | O=C(COc1ccccc1F)Nc1nc(-c2ccccn2)cs1 | -8.96% (inactive) | 
30 | Clc1ccc(C(Cn2ccnc2)OCc2c(Cl)cccc2Cl)c(Cl)c1 (stereo not drawn) | 0.224% (inactive) | 
31 | Cc1ccc(Nc2cc(C)nn2-c2nc(C)cc(C)n2)cc1 | -3.61% (inactive) | 
32 | O=S(=O)(c1ccc(Cl)cc1)N1CCC2(CC1)OCCN2S(=O)(=O)c1cccs1 | -0.748% (inactive) | 
33 | O=C(O)c1c(NC(=O)N2CCCC2)sc2c1CCCC2 | 19.6% (inactive) | 
34 | CC1Oc2ccccc2C=C1/C=N/Nc1ccc(C(=O)O)cc1 (stereo not drawn) | 1.68% (inactive) | 
35 | C=CCOC(Cn1ccnc1)c1ccc(Cl)cc1Cl (stereo not drawn) | 9.44% (inactive) | 
36 | Cc1ccsc1/C=C/c1ccc2cccc(O)c2n1 | -8.21% (inactive) | 
37 | CC1(C)C=Cc2c(ccc3c2OC[C@@H](c2ccc(O)cc2O)C3)O1 | 16.2% (inactive) | 
38 | Cc1nc(-c2ccccn2)nc(N(C)c2ccccc2)c1Cl | 9.36% (inactive) | 
39 | Oc1c(CN2CCCC2)cc(COCc2ccccc2)c2cccnc12 | -2.61% (inactive) | 
40 | C[n+]1c2cc(N)ccc2cc2ccc(N)cc21 | 14.2% (inactive) | 
41 | Cc1cccc(N2CCN(C(=O)C3COc4ccccc4O3)CC2)c1C (stereo not drawn) | -5.05% (inactive) | 
42 | Nc1cc2c3ccccc3ccc2c2ccccc12 | -1.86% (inactive) | 
43 | CCCCCOc1ccc(CSc2n[nH]c(C)n2)cc1 | 5.34% (inactive) | 
44 | C=CCn1c(-c2cc(-c3ccc(C)cc3)nc3ccccc23)n[nH]c1=S | 15.5% (inactive) | 
45 | CC/C(=N/NC(=O)c1ccccc1O)c1c(C)[nH]n(-c2ccccc2)c1=O | -2.64% (inactive) | 
46 | Cc1ccc(C(=O)C(SC(C)(C)C)n2cncn2)cc1 (stereo not drawn) | 10.4% (inactive) | 
47 | Oc1ccccc1-c1cc(-c2ccc3c(c2)OCCO3)n[nH]1 | -2.25% (inactive) | 
48 | [O-][n+]1cccc2c(Br)cc(Br)c(O)c21 | -12.1% (inactive) | 

Row | SMILES | activity change, negative = toxicity (at 50 µM (top of the series)) | activity change, negative = toxicity (at 16 µM (top of the series))
49 | CCCC1CCC(c2ccc(/C(N)=N/O)cc2)CC1 (stereo not drawn) | -4% (inactive) | 
50 | c1ccc(-c2ccc(SCc3cccnc3)nn2)nc1 | -5.74% (inactive) | 
51 | Cc1cc(NS(=O)(=O)c2ccc(C3CCCCC3)cc2)no1 | -14.2% (inactive) | 
52 | O=C1OCC(CO)(CO)N=C1NNc1ccc(Cl)c(Cl)c1 | 2.06% (inactive) | 
53 | CCCc1cc(C(N)=O)c(NC(=O)c2cc(C)on2)s1 | 12.3% (inactive) | 
54 | Cc1nc2ccc(C(C(F)(F)F)(C(F)(F)F)C(F)(F)F)cc2[nH]1 | 3.14% (inactive) | 
55 | O=C(NCc1ccncc1)c1ccccc1Nc1ccc(SC(F)F)cc1 | 3.29% (inactive) | 
56 | CN(C)c1ccc(C=c2c3cc(O)ccc3n3c2cc(-c2ccccc2)[n+]3C)cc1 | 3.47% (inactive) | 
57 | Cc1c(C(=O)O)cccc1-c1ccc(/C=N/Nc2ccc(Br)cc2)o1 | -0.158% (inactive) | 
58 | CCCCNc1c(-c2ccc(-c3ccc(OC)cc3)c(OC)c2)nc2ccccn12 | 2.06% (inactive) | 
59 | OCCN(CCO)c1cc2c3ccccc3ccc2c2ccccc12 | -14.3% (inactive) | 
60 | Cc1ccc(O)c(-c2cc(-c3ccccc3C)[nH]n2)c1 | -5.19% (inactive) | 
61 | CCC1=NN(C(=O)c2cccc(Br)c2)C(O)(c2ccc(Br)cc2)C1 (stereo not drawn) | 4.18% (inactive) | 
62 | O/N=C/c1ccccc1OCc1ccc(Cl)cc1 | 18.4% (inactive) | 
63 | O=C(CCCSc1ccccc1)Nc1nc(-c2ccccn2)cs1 | -1.21% (inactive) | 
64 | CC(NC(=S)NC1CCC(C(C)(C)C)CC1)c1ccccc1 (stereo not drawn) | 3.27% (inactive) | 
65 | CCOC(=O)N1C(=O)C2(CCCCC2)N(c2ccccc2Cl)C1=S | -8.13% (inactive) | 
66 | Cc1ccc(-c2c3c(nc4sc(C(N)=O)c(N)c24)CCCC3)o1 | 14.4% (inactive) | 
67 | O=C(Nc1nnc(-c2cccs2)o1)c1cccc(Oc2ccccc2)c1 | -7.72% (inactive) | 
68 | CC1CCN(c2ccc3c(c2)S(=O)(=O)c2ccccc2C3=O)CC1 | -1.31% (inactive) | 
69 | COc1ccc(Sc2nc(-c3ccccn3)ncc2OC)cc1 | 5.95% (inactive) | 
70 | CCOc1ccc(N/N=C(/C#N)C(N)=O)cc1 | 9.15% (inactive) | 
71 | CCN1C(=O)C(CC(=O)Nc2ccccc2Cl)N(NC(=O)c2cccc(F)c2)C1=S (stereo not drawn) | 11.9% (inactive) | 
72 | c1ccc(C(=NNc2nc3ccccc3s2)c2ccccn2)cc1 | 11.9% (inactive) | 

Row | SMILES | activity change, negative = toxicity (at 50 µM (top of the series)) | activity change, negative = toxicity (at 16 µM (top of the series))
73 | CCCCCCC(Cl)(Cn1ccnc1)c1ccccc1 (stereo not drawn) | 16% (inactive) | 
74 | CCCCNC(=S)N/N=C1\CCCCc2ccccc21 | 1.99% (inactive) | 
75 | CCC(C)Sc1cccc(-c2nc3ccccn3c2NCc2ccccc2)c1 (stereo not drawn) | -15.9% (inactive) | 
76 | O=c1c(O)c(-c2ccccc2)oc2ccccc12 | -0.823% (inactive) | 
77 | FC(F)(F)c1nc(SCc2ccc(Cl)cc2Cl)n[nH]1 | -4.01% (inactive) | 
78 | Fc1ccc(CCNC(=S)Nc2ccc(F)c(Cl)c2)cc1 | -8.4% (inactive) | 
79 | C=CCNC(=S)N1CCC(Cc2ccccc2)CC1 | 7.32% (inactive) | 
80 | O=C(NC(=S)N(CCc1ccccc1)CCc1ccccc1)c1ccco1 | 20.1% (inactive) | 
81 | COc1ccc2oc(=O)c(-c3csc(Nc4cccc(O)c4)n3)cc2c1 | 4.36% (inactive) | 
82 | Nc1nc2sc3c(c2c(=O)s1)CCCC3 | 13.7% (inactive) | 
83 | CN(C)c1nc(SCc2ccc(Cl)cc2)nc2c1CCCC2 | 9.05% (inactive) | 
84 | COC(=O)C1=C(C)NC(C)=C(C(=O)OCC(C)C)C1c1ccccc1[N+](=O)[O-] (stereo not drawn) | -14.8% (inactive) | 
85 | COc1cccc(CC(=O)Nc2ccc3nc(C)sc3c2)c1 | 14.6% (inactive) | 
86 | O=C(c1ccccc1)c1coc2c1C(=O)c1ccccc1C2=O | -10.3% (inactive) | 
87 | CCCCC(=O)NC(c1ccco1)c1cc(Cl)c2cccnc2c1O (stereo not drawn) | -22.9% (inactive) | 
88 | O/N=C(\c1ccc(Cl)cc1)c1cc2ccccc2o1 | -9.72% (inactive) | 
89 | CCCCC(=O)NC(=S)NNC(=O)CCc1ccccc1 | -16.3% (inactive) | 
90 | O=C(Oc1c(Cl)cc(Cl)c2cccnc12)c1cccs1 | 19% (inactive) | 
91 | CCc1ccc(OCc2n[nH]c(=S)n2Cc2ccccc2)cc1 | 3.81% (inactive) | 
92 | COc1ccc(C(=O)On2c(-c3ccc(Br)cc3)nc3ccccc3c2=O)cc1 | 8% (inactive) | 
93 | COC(=O)COC(=O)c1ccccc1NC(=O)c1ccccc1 | -14.7% (inactive) | 
